In ChEMBL document CHEMBL6134921, “Novel Tetrahydrobenzo[b]pyrazolo[3,4-e][1,4]diazepine Compounds as Oxytocin Receptor Agonists for Treating Autism Spectrum Disorders” (ACS Med Chem Lett, 2025) one finds IC50, EC50 and Ratio IC50/EC50 data, which are given here for six molecules.

Each structure is given as a SMILES string. Some results are limits rather than exact numbers.

The target of assay [1] is Vasopressin V1a receptor (Homo sapiens, UniProt P37288). As to the kind of experiment: Antagonist activity at V1A receptor (unknown origin) by calcium signal assay. The assay is classed as functional.
The target in assay [2] is T1, Oxytocin receptor (Homo sapiens, UniProt P30559).
T1 sequence (P30559 whole entry): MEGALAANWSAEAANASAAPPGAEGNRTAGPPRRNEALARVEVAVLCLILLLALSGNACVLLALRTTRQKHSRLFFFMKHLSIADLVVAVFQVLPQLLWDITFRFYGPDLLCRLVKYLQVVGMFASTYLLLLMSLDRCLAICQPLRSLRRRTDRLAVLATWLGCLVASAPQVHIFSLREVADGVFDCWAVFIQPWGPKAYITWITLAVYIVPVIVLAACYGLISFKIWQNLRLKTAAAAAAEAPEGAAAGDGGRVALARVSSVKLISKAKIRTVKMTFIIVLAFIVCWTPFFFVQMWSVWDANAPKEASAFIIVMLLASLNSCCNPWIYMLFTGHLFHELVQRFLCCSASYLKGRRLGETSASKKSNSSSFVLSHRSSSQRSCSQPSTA
The assay is described as follows: Agonist activity at oxytocin receptor (unknown origin) expressed in CHO cells by IP-1 accumulation assay. The assay is classed as functional, cell-based.

A short description of assay [3]: Selectivity ratio, IC50 for antagonist activity at V1A receptor (unknown origin) to EC50 for agonist activity at oxytocin receptor (unknown origin) expressed in CHO cells. The assay is classed as cell-based.

By IC50 is commonly meant the concentration needed to halve the response being measured. The EC50 is the concentration needed to bring the measured effect to its halfway point.

Chain of Vasopressin V1a receptor (P37288 whole entry): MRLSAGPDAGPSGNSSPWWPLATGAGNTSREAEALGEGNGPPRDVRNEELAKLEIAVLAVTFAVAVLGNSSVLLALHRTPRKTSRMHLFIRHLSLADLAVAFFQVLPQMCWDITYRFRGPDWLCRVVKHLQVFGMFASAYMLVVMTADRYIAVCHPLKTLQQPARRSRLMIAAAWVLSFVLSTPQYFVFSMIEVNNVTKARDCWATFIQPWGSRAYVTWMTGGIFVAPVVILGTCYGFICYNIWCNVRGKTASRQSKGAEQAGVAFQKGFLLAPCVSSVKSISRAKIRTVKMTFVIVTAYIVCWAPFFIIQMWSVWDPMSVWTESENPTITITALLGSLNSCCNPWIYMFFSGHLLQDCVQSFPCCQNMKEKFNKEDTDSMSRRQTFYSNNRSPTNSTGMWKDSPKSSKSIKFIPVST

As to `Cc1cc(C(=O)N2Cc3cnn(C)c3Nc3ccccc32)ccc1CNC(=O)N1C[C@H](n2cc(CO)nn2)C[C@H]1C(=S)N(C)C`, in assay [1], the IC50 came out at 966 nM. Besides, in assay [2], the EC50 is 0.15 nM. Further, the Ratio IC50/EC50 in assay [3] came out at 6450.

Consider `Cc1cc(C(=O)N2Cc3cnn(C)c3Nc3ccccc32)ccc1CNC(=O)N1C[C@@H](n2cc(CO)nn2)C[C@H]1C(=S)N(C)C`, for which the IC50 in assay [1] is 700 nM. The response in assay [2] was half-maximal at 0.14 nM (EC50). Also, the Ratio IC50/EC50 in assay [3] came out at 5000.

For `Cc1cc(C(=O)N2Cc3cnn(C)c3Nc3ccccc32)ccc1CNC(=O)N1C[C@H](n2cc(CC3NC(=O)NC3=O)nn2)C[C@H]1C(=S)N(C)C` (some centres undefined), the IC50 in assay [1] was 393 nM. The molecule also returned an EC50 in assay [2] of 0.26 nM. Besides, in assay [3], the Ratio IC50/EC50 worked out at 1510.

`Cc1cc(C(=O)N2Cc3cnn(C)c3Nc3ccccc32)ccc1CNC(=O)N1C[C@H](n2cc(CF)nn2)C[C@H]1C(=S)N(C)C`: the 50% effective concentration (EC50) in assay [2] was found to be 0.31 nM.

In the case of `Cc1cc(C(=O)N2Cc3cnn(C)c3Nc3ccccc32)ccc1CNC(=O)N1C[C@H](n2cc(COCCF)nn2)C[C@H]1C(=S)N(C)C`, the EC50 in assay [2] was 0.55 nM.

Regarding `Cc1cc(C(=O)N2Cc3cnn(C)c3Nc3ccccc32)ccc1CNC(=O)N1C[C@H](n2cc(CCc3nnn[nH]3)nn2)C[C@H]1C(=S)N(C)C`, the IC50 in assay [1] was over 10000 nM. In assay [2], this molecule came in with an EC50 of 1.95 nM. Also, the Ratio IC50/EC50 in assay [3] was over 5000.
